Source: patent publication US8106003B2, “Peptides and methods for the treatment of inflammatory disease” (Auckland Uniservices Limited, priority 2004, dated 2012)

System: β2 integrin (αLβ2)-mediated adhesion of H9 cells to ICAM-1
Assay: Cell adhesion assay: H9 cells to ICAM-1-Fc (integrin specificity)
Format: cell-based, human
Conditions: Mn++-activated H9 cells
Protocol: Cell adhesion assays. Lab-Tek 16-well glass slides (Nunc) or flat-bottomed 96-well maxisorb plates (Nunc) were coated with purified mouse MAdCAM-1-Fc, human VCAM-1-Fc, and human ICAM-1-Fc (70 to 100 μl of 5 to 10 μg/ml), and incubated at 4° C. overnight. Slides were washed once with PBS, and blocked with FCS for 2 h at room temperature. Slides were washed with Hanks balanced salt solution (HBSS) containing 10 mM Hepes. Cells were either left unlabeled or labeled with the fluorescent dye chloromethyl fluorescein diacetate (CMFDA; Molecular Probes, Oregon), and activated by resuspension in HBSS containing 10 mM Hepes supplemented with 2 mM Ca^++ and 2 mM Mn^++. Cells were alternatively activated with 50 ng/ml PMA, or by incubating with AlF4^− (10 mM NaF and 40 µM AlCl3). They were preincubated with peptides at different concentrations for 10 min at room temperature, checked for viability by trypan blue exclusion, and then 10^6 cells added to each coated well and left to adhere for 30 min at room temperature. […] The number of adherent cells was determined by counting the number of adherent cells in four independent fields at 100× magnification under an inverted microscope. […] The fluorescence of CMFDA-labeled adherent cells was measured using a VICTOR 1420 multilabel counter (Wallac). […]

For “YDDREY: cell permeable YDRREY (SEQ ID NO. 1) peptide, carrier not stated at this place”, the “inhibition of H9 cell binding to ICAM-1” value was “neither the cell permeable YDDREY (SEQ ID NO. 1) peptide nor the β3 CARD were able to block”.
